Results as given in patent publication US11000511B2, “Chemical compounds as antibiotics” (priority 2017, dated 2021).

How the values were obtained:
Format in all cases: biochemical
[1] = molecular target: T1, purified LasB protein from P. aeruginosa (Pseudomonas aeruginosa, UniProt P14756); assay: Fluorometric assay to determine Ki (Assay 2)
T1 construct: purchased Merck or Charles River Laboratories
Procedure: (§1) Experiments were therefore conducted (1) to measure the potency of inhibition of compounds of the invention against purified Pseudomonas aeruginosa LasB enzyme and also experiments were conducted (2) to measure the ability of compounds of the invention to inhibit LasB-catalysed elastin degradation. The first assay uses a commercial fluorescent synthetic peptide and purified LasB enzyme. The LasB hydrolysis kinetics are measured allowing the determination of the IC50 and Ki of the inhibitors; the second is a more physiological assay using dialysed Pseudomonas aeruginosa supernatant as source of enzyme, plus its natural substrate Elastin. It is an “end point assay” that determines the percentage of LasB inhibition by each compound for one particular time point and inhibitor concentration. Technical details are described below:
This assay uses commercially available substrate (Abz-Ala-Gly-Leu-Ala-p-Nitro-Benzyl-Amide (Ex: 340 nm, Em: 415 nm) from Peptide International) and purified LasB protein from P. aeruginosa (provided by Merck or Charles River Laboratories). It is performed to determine LasB elastase activity and assess compound inhibition in 96-well plate format. Some compounds of Formula (I) were assessed using the method of Assay 1 (described below). Other compounds of Formula (I) were assessed using the alternative but equivalent method of Assay 2 (described below).
Method: 10 to 140 ng/ml purified LasB is incubated with 250 μM Abz-Ala-Gly-Leu-Ala-p-Nitro-Benzyl-Amide in 50 mM Tris-HCl pH 7.4, 2.5 mM CaCl2), 0.01% of Triton X100 at 37° C. LasB activity (corresponding to fluorescence emission induced by substrate hydrolysis) is measured over 30 min at 37° C. with a fluorescence plate reader such as the Perkin Elmer Envision or similar. Different range of inhibitor concentrations are routinely assessed depending of inhibitor potency from 0.006 to 200 μM (Assay 1; 2-fold dilutions series) or from 0.0016 to 200 μM (Assay 2; 2-fold dilutions series) in order to determine IC50.
The equation used to calculate the Ki from IC50 is: Ki=IC50/(1+([S]/Km)) where [S]=250 μM and Km=214 μM.

[2] = molecular target: T2, LasB elastase activity in dialysed supernatant from P. aeruginosa strain PA01 (Pseudomonas aeruginosa, UniProt P14756); assay: Elastin Congo Red assay to determine % inhibition (Assay 2); conditions: read-out: Elastin hydrolysis % inhibition @ 50/25 μM inhibitor concentration Assay 2
T2 construct: uses as source of enzyme dialysed supernatant from P. aeruginosa; endogenous in cells; host or cells: P. aeruginosa strain PA01 culture supernatant, filtered and dialysed
Procedure: as §1
The Elastin assay uses as source of enzyme dialysed supernatant from P. aeruginosa and the elastin congo red as substrate. The natural LasB substrate, elastin, is complexed with the congo red dye (Elastin Congo Red, ECR). The elastolysis activity from the culture supernatant will degrade elastin and release the congo red dye into the supernatant. This red dye release can be measured with a spectrophotometer. Some compounds of Formula (I) were assessed using the method of Assay 1 (described below). Other compounds of Formula (I) were assessed using the alternative but equivalent method of Assay 2 (described below).
Method (Assay 2): To determine LasB elastase activity and assess compound inhibition, an overnight culture of P. aeruginosa strain PA01 is diluted in LB medium. After reaching an OD600 nm of 0.6, this culture is diluted and incubated for additional 18-24 h in a shaking incubator. Culture supernatants are recovered by centrifugation and filtrated through a […] filter. These supernatants are dialysed (filtration molecules <20 kDa) into a 50 mM Tris-HCl pH 7.4, 2.5 mM CaCl2 solution at 4° C. under agitation for 24 h. Supernatant dialysed is then mixed volume/volume with the ECR suspension (20 mg/mL of ECR in 100 mM Tris-HCl pH 7.4 buffer supplemented with 1 mM CaCl2) supplemented with TritonX 100 (final concentration of 0.01%) in presence of DMSO (positive control) and/or different concentrations of compound (routinely […]). As a negative control, the dialysed supernatant is replaced by Tris-HCl solution (50 mM Tris-HCl pH 7.4, 2.5 mM CaCl2). The mixed reaction is then incubated overnight in a 37° C. shaking incubator. The reaction supernatant is recovered by centrifugation and the release of congo-red is measured by its absorbance at 495 nm (OD495 nm).
Percentage inhibition is determined using the following equation: ((OD495 nm value of positive control−OD495 nm value of negative control)−(OD495 nm value of treated supernatant−OD495 nm value of negative control))/(OD495 nm value of positive control−OD495 nm value of negative control)×100.

[3] = molecular target: T1, purified LasB protein from P. aeruginosa; assay: Fluorometric assay to determine Ki (Assay 1); conditions: Ki (μM) Assay 1, purified LasB, substrate Abz-Ala-Gly-Leu-Ala-p-Nitro-Benzyl-Amide 250 μM, Ki calculated from IC50; inhibitor 0.006 to 200 μM
In short: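 Purified LasB (10 to 140 ng/ml) with 250 μM Abz-Ala-Gly-Leu-Ala-p-nitrobenzylamide in 50 mM Tris-HCl pH 7.4, 2.5 mM CaCl2, 0.01% Triton X100; hydrolysis read by fluorescence (Ex 340/Em 415 nm) over 30 min at 37° C. Inhibitor 2-fold series, 0.006–200 μM (Assay 1) or 0.0016–200 μM (Assay 2); IC50 converted to Ki via Ki=IC50/(1+[S]/Km), Km=214 μM.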

[4] = molecular target: T2, LasB elastase activity in dialysed supernatant from P. aeruginosa strain PA01; assay: Elastin Congo Red assay to determine % inhibition (Assay 1); conditions: read-out: Elastin hydrolysis % inhibition @ 50/25 μM inhibitor concentration Assay 1
In short: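 Enzyme source: PA01 culture supernatant (19 h growth), filtered and dialysed into 50 mM Tris pH 7.4, 2.5 mM CaCl2. Mixed 1:1 with Elastin Congo Red (20 mg/mL) plus 0.01% Triton X-100 and compound (routinely 50 and 25 μM), 24 h at 37 °C shaking. Dye release at OD520 gives % inhibition versus DMSO.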

T1 sequence (P14756 198-498): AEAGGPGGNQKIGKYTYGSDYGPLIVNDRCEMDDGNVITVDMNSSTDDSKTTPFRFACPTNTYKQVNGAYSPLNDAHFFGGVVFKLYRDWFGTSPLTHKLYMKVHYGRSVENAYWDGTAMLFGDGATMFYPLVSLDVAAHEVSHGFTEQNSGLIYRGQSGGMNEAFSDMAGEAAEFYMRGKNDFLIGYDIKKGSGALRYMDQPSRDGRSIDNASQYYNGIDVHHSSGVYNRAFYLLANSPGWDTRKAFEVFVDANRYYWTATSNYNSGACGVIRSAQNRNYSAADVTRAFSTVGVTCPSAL
T2 sequence (P14756 198-498): as above

## COc1cc2sc(CNC(=O)C3(CC(=O)O)Cc4ccccc4C3)nc2cc1N1CC(N(C)C)C1 [Example 122, 2-(2-(((5-(3-(dimethylamino)azetidin-1-yl)-6-methoxybenzo[d]thiazol-2-yl)methyl)carbamoyl)-2,3-dihydro-1H-inden-2-yl)acetic acid]
[1]
  Ki: < 300 nM
[2]
  inhibition at 50 µM: > 60%

## O=C(O)CC1(C(=O)NCc2nc3ccc(O)cc3s2)Cc2ccccc2C1 [Example 107, 2-[2-[(6-hydroxy-1,3-benzothiazol-2-yl)methylcarbamoyl]indan-2-yl]acetic acid]
[1]
  Ki: < 300 nM
[2]
  inhibition at 50 µM: > 60%

## O=C(O)CC1(C(=O)NCc2nc3ccccc3s2)Cc2cc(F)c(F)cc2C1 [Example 120, 2-(2-((benzo[d]thiazol-2-ylmethyl)carbamoyl)-5,6-difluoro-2,3-dihydro-1H-inden-2-yl)acetic acid]
[1]
  Ki: < 300 nM
[2]
  inhibition at 50 µM: > 60%

## COc1cc2sc(CNC(=O)C3(CC(=O)O)Cc4ccccc4C3)nc2cc1OCCN(C)C [Example 126, 2-(2-(((5-(2-(dimethylamino)ethoxy)-6-methoxybenzo[d]thiazol-2-yl)methyl)carbamoyl)-2,3-dihydro-1H-inden-2-yl)acetic acid]
[1]
  Ki: < 300 nM
[2]
  inhibition at 50 µM: > 60%

## C[N+](C)(C)CCCc1ccc2sc(CNC(=O)C3(CC(=O)[O-])Cc4ccccc4C3)nc2c1 [Example 90, 2-[2-[[5-[3-(trimethylammonio)propyl]-1,3-benzothiazol-2-yl]methylcarbamoyl]indan-2-yl]acetate]
[3]
  Ki: 0.3 to 2 µM
[4]
  inhibition at 50 µM: > 60%

## O=C(O)CC1(C(=O)NCc2ccccc2)Cc2ccccc2C1 [Example 16, 2-[2-(benzylcarbamoyl)indan-2-yl]acetic acid]
[3]
  Ki: 2 to 10 µM
[4]
  inhibition at 50 µM: 30 to 60%

## CN1CCc2nc(CNC(=O)C3(CC(=O)O)Cc4ccccc4C3)sc2C1 [Example 129, 2-[2-[(5-methyl-6,7-dihydro-4H-thiazolo[5,4-c]pyridin-2-yl)methylcarbamoyl]indan-2-yl]acetic acid]
[3]
  Ki: 0.3 to 2 µM
[4]
  inhibition at 50 µM: 30 to 60%

## CN(C)CCOc1ccc2sc(CNC(=O)C3(CC(=O)O)Cc4ccccc4C3)nc2c1 [Example 112, 2-[2-[[5-[2-(dimethylamino)ethoxy]-1,3-benzothiazol-2-yl]methylcarbamoyl]indan-2-yl]acetic acid]
[3]
  Ki: < 0.3 µM
[4]
  inhibition at 50 µM: > 60%

## CN(C)CCCc1ccc2nc(CNC(=O)C3(CC(=O)O)Cc4ccccc4C3)sc2c1 [Example 36, 2-[2-[[6-[3-(dimethylamino)propyl]-1,3-benzothiazol-2-yl]methylcarbamoyl]indan-2-yl]acetic acid]
[3]
  Ki: < 0.3 µM
[4]
  inhibition at 50 µM: > 60%

## O=C(O)CC1(C(=O)NCCc2nc3ccccc3s2)Cc2ccccc2C1 [Example 22, 2-[2-[2-(1,3-benzothiazol-2-yl)ethylcarbamoyl]indan-2-yl]acetic acid]
[3]
  Ki: 2 to 10 µM
[4]
  inhibition at 50 µM: 15 to 30%

## CN(C)CC#Cc1ccc2nc(CNC(=O)C3(CC(=O)O)Cc4ccccc4C3)sc2c1 [Example 35, 2-[2-[[6-[3-(dimethylamino)prop-1-ynyl]-1,3-benzothiazol-2-yl]methylcarbamoyl]indan-2-yl]acetic acid]
[3]
  Ki: < 0.3 µM
[4]
  inhibition at 50 µM: > 60%

## O=C(O)CC1(C(=O)N[C@@H](Cc2ccc(O)cc2)C(=O)O)Cc2ccccc2C1 [Example 49, (2-(carboxymethyl)-2,3-dihydro-1H-indene-2-carbonyl)-L-tyrosine]
[3]
  Ki: 0.3 to 2 µM
[4]
  inhibition at 50 µM: > 60%

## O=C(O)CC1(C(=O)NCc2cc3ccccc3[nH]2)Cc2ccccc2C1 [Example 29, 2-[2-(1H-indol-2-ylmethylcarbamoyl)indan-2-yl]acetic acid]
[3]
  Ki: < 0.3 µM
[4]
  inhibition at 50 µM: 30 to 60%

## O=C(O)CC1(C(=O)NCc2nc3c(Br)cccc3s2)Cc2ccccc2C1 [Example 61, 2-(2-(((4-bromobenzo[d]thiazol-2-yl)methyl)carbamoyl)-2,3-dihydro-1H-inden-2-yl)acetic acid]
[3]
  Ki: < 0.3 µM
[4]
  inhibition at 50 µM: > 60%

## CN(C)CCNc1ccc2nc(CNC(=O)C3(CC(=O)O)Cc4ccccc4C3)sc2c1 [Example 105, 2-[2-[[6-[2-(dimethylamino)ethylamino]-1,3-benzothiazol-2-yl]methylcarbamoyl]indan-2-yl]acetic acid]
[3]
  Ki: 0.3 to 2 µM
[4]
  inhibition at 50 µM: 30 to 60%

## O=C(O)CC1(C(=O)NCc2nc3cnccc3s2)Cc2ccccc2C1 [Example 127, 2-[2-(thiazolo[4,5-c]pyridin-2-ylmethylcarbamoyl)indan-2-yl]acetic acid]
[3]
  Ki: 0.3 to 2 µM
[4]
  inhibition at 50 µM: > 60%

## COC(=O)[C@H](Cc1c[nH]c2ccccc12)NC(=O)C1(CC(=O)O)Cc2ccccc2C1 [Example 53, (S)-2-(2-((3-(1H-indol-3-yl)-1-methoxy-1-oxopropan-2-yl)carbamoyl)-2,3-dihydro-1H-inden-2-yl)acetic acid]
[3]
  Ki: 0.3 to 2 µM
[4]
  inhibition at 50 µM: > 60%

## Cc1c(CNC(=O)C2(CC(=O)O)Cc3ccccc3C2)oc2ccccc12 [Example 11, 2-(2-{[2-(3-methyl-1-benzofuran-2-yl)methyl]carbamoyl}-2,3-dihydro-1H-inden-2-yl)acetic acid]
[3]
  Ki: 0.3 to 2 µM
[4]
  inhibition at 50 µM: 30 to 60%

## O=C(O)CC1(C(=O)NCc2cc3ccccc3o2)Cc2ccccc2C1 [Example 5, 2-(2-{[(1-Benzofuran-2-yl)methyl]carbamoyl}-2,3-dihydro-1H-inden-2-yl)acetic acid]
[3]
  Ki: 0.3 to 2 µM
[4]
  inhibition at 50 µM: 30 to 60%

## O=C(O)CC1(C(=O)NCc2nc3ccccc3[nH]2)Cc2ccccc2C1 [Example 51, 2-(2-(((1H-benzo[d]imidazol-2-yl)methyl)carbamoyl)-2,3-dihydro-1H-inden-2-yl)acetic]
[3]
  Ki: 2 to 10 µM
[4]
  inhibition at 50 µM: 15 to 30%

## O=C(O)CC1(C(=O)NCc2nccs2)Cc2ccccc2C1 [Example 54, 2-(2-((thiazol-2-ylmethyl)carbamoyl)-2,3-dihydro-1H-inden-2-yl)acetic acid]
[3]
  Ki: 0.3 to 2 µM
[4]
  inhibition at 50 µM: > 60%
